Results published in paper PMC11696576, “Next generation thiazolyl ketone inhibitors of cytosolic phospholipase A2 α for targeted cancer therapy” (Nature Communications, 2025).
Several values for one entry are separate records, joined by “and”; a condition that tells them apart may be missing. Equal values may be shown once. Read-outs that look alike come from different tables or passages of the source. Marks after values point to notes of the source that are not given here.

Tests used:
[1] = biological target: T1, human calcium-independent GVIA iPLA2 (Homo sapiens, UniProt O60733); test: radioactivity-based mixed micelle assay, GVIA iPLA2; type: biochemical
T1 sequence (O60733 1-806): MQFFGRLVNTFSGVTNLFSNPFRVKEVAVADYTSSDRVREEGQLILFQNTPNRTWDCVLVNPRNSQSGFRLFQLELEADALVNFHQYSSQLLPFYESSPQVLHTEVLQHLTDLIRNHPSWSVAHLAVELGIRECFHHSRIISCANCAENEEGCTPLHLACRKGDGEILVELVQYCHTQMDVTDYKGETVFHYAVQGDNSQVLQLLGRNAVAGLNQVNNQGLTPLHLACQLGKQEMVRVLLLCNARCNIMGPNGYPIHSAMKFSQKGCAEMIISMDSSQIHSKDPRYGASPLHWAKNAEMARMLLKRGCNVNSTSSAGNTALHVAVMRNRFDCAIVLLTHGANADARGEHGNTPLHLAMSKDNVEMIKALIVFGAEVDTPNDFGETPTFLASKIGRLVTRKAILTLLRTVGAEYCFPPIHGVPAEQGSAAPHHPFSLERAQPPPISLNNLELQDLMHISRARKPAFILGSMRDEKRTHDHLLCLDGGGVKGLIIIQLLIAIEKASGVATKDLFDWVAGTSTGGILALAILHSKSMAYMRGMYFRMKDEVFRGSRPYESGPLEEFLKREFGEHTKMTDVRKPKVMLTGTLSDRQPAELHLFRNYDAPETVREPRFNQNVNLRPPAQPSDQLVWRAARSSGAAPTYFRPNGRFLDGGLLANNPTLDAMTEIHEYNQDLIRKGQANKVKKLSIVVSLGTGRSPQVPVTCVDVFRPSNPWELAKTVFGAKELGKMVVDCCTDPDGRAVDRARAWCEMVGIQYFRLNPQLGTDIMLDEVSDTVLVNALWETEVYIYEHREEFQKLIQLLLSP
Description: All synthesized thiazolyl ketones were tested for their in vitro inhibitory activity on recombinant human cPLA2α and selectivity over human calcium-independent GVIA iPLA2 and secreted GV sPLA2 using our previously described group-specific radioactivity-based mixed micelle assays. The inhibition results are presented either as per cent inhibition or as XI(50) values in Table 1. […] The XI(50) is defined as the mole fraction of the inhibitor in the total substrate interface required to inhibit the enzyme activity by 50%. For comparison purposes, previously published data for the inhibitor GK470[19] are included. […] Inhibitors were initially screened at 0.091 mol fraction (5 μL of 5 mM inhibitor in DMSO) in substrate (495 μL) in technical triplicates. […] The XI(50) value and stdev values reported are for the entire curve. This analysis was performed in GraphPad Prism v6.

[2] = stability in human plasma (LC-MS/MS); type: in vitro ADME; details: for Stability in human plasma 4 h: % of the compound remaining after 4 h; for plasma stability 4h (%) / plasma stability 20h (%) / plasma stability 25h (%) / plasma stability 24h39min (%): individual sample, human plasma
Description: The stability of the analogs in human plasma was studied over approximately 24 h by LC-MS/MS and the results at 4 h and the final timepoint (20–25 h) are included in Table 1.
The metabolic stability of the compounds was determined through in vitro stability assays in human plasma. Solutions of compounds in DMSO (20 mM) were diluted to 5 μg/mL in 50% methanol for infusion into the MS/MS system and spiking of calibration standards and control samples. For the MS detection, positive ionization in ESI mode was used. Good sensitivity, retention and peak shaped were achieved using a gradient with 5 mM ammonium carbamate in water and ammonium carbamate in 90% acetonitrile on a reversed phase column (ACE3AQ). Calibration standards were spiked in a calibration range of 0.5–100 ng/ml. Control samples were spiked at, low, medium, and high concentration levels. The spiked plasma samples were prepared by protein precipitation using acetonitrile containing appropriate internal standard (IS). […] Samples were prepared for analysis by taking 50 μL of plasma sample and adding 100 μL of IS working solution in acetonitrile followed by vortexing at 2500 rpm (Multi-tube vortexer DVX-2500, Henry Troemner LLC, USA) for 2 min. The samples were centrifuged at 5300 rpm (Heraeus Megafuge 1.0 Heraeus, Germany) for 3 min and the supernatant transferred to the autosampler. Recovery was determined by comparing the prepared matrix samples (protein precipitation) with a direct sample (analytes spikes in 67% acetonitrile = injection solution) such that the recovery of the sample preparation and the matrix effects were determined together. Two or three samples were each measured in technical triplicates to give the final % recovery.

SW982 synoviocytes = test: cellular arachidonic acid (AA) release assay, IL-1β stimulated; type: cell-based, human; details: for EC50 / IC50: SW982; for IC50: concentration in µM, read-out: logEC50 best-fit value, AA release (converted); for inhibition at 5 µM: SW982, 5 µM
Source text: To test the inhibitory activity of the compounds in cells, we measured their effect on the release of AA from synoviocytes stimulated with IL-1β (Table 2). […] Combined with favorable selectivity and stability it was thus chosen for further evaluation. We looked specifically at how it modulated eicosanoid levels in response to stimulation both in whole blood and in isolated peripheral blood mononuclear cells (PBMCs) and checked for off-target effects on AA metabolism in whole blood by also measuring the effect of GK420 on eicosanoid release in the presence of exogenous free AA.
The human synovial sarcoma cell line SW982 (ATCC, London, UK) was used to measure AA release. The cells were maintained in Dulbecco’s Modified Eagle Medium (DMEM) supplemented with 10% FBS, 0.1 mg/mL gentamicin, and 0.3 mg/mL L-glutamine at 37 °C with 10% CO2, and experiments were performed at 3 days post-confluence. To measure AA release, the cells were labeled overnight with ^3H-AA (0.4 μCi/mL) in serum-free DMEM and then washed twice with PBS containing fBSA (2 mg/mL) to remove unincorporated radioactivity. The inhibitors, or DMSO vehicle control, were subsequently added to the cells for 1 hour prior to stimulation with 10 ng/mL IL-1β for 4 h. Supernatants were collected and centrifuged at 300 × g for 5 min to clear them of detached cells and adherent cells were dissolved in 1 N NaOH. The ^3H-AA was assessed by liquid scintillation counting (LS 6500 Multi-Purpose Scintillation Counter, Beckman Coulter, Inc., USA) and the results are given as the inhibition of released ^3H-AA in the supernatants relative to total ^3H-AA incorporated into the cells, as described. EC50 values were calculated by fitting the % inhibition data to a three-parameter dose-response curve in GraphPad prism v10.4.0. Experiments were performed in technical triplicates and repeated at least three times.

[3] = 0.091 mole fraction, read-out: GVIA iPLA2 % Inhib
[4] = average of triplicates, read-out: iPLA2 % inhibition at 0.091 mole fraction, average
[5] = individual technical replicate, read-out: iPLA2 % inhibition at 0.091 mole fraction
[6] = % of the compound remaining after 20 h
[7] = 0.2 µM, individual biological replicate
[8] = 1 µM, individual biological replicate
[9] = 5 µM, individual biological replicate
[10] = Homo sapiens, SW982, 4 h, 1 µM inhibitor, IL-1β 4 h, mean ± stdev, read-out: AA release % Inhib
[11] = Homo sapiens, IL-1β 4 h, 0.2, 1 or 5 µM inhibitor, read-out: AA release EC50 µM (95% CI)
[12] = Homo sapiens, [Agonist] vs. Response (three parameters)
[13] = Homo sapiens, [Agonist] vs. Response (three parameters), read-out: EC50 best-fit value, AA release
[14] = Homo sapiens, individual biological replicate
[15] = Homo sapiens, SW982, 1 µM, individual biological replicate, read-out: % inhibition of stimulated AA release
[16] = % of the compound remaining after 24 h 39 min (*)

SMILES	inhibition at 0.091 mole fraction [1, 3]	inhibition at 0.091 mole fraction [1, 4]	inhibition at 0.091 mole fraction [1, 5]	Stability in human plasma 4 h [2]	plasma stability 4h (%) [2]	% inhibition of stimulated AA release (SW982 synoviocytes; [7])	% inhibition of stimulated AA release (SW982 synoviocytes; [8])	% inhibition of stimulated AA release (SW982 synoviocytes; [9])	inhibition at 1 µM (SW982 synoviocytes; [10])	EC50 (SW982 synoviocytes; [11])	IC50 (SW982 synoviocytes; [12])	EC50 (SW982 synoviocytes; [13])	inhibition at 5 µM (SW982 synoviocytes; [14])	inhibition at 1 µM (SW982 synoviocytes; [15])	other results
CCCCCCOc1ccc(SCC(=O)c2nc(C(=O)OC)cs2)cc1 [GK419]	0%	0%	0%	82%	82.6% and 81.4%	23.74% and 36.06% and 29.89% and 8.79%	51.4% and 93.19% and 85.38% and 54.33%	98.65% and 99.61% and 98.35% and 63.6%	71 ± 21%	0.5 µM	0.495 µM	0.495 µM			Stability in human plasma 20+ h [2, 6]: 52.7%; plasma stability 20h (%) [2]: 53.1% and 52.3%
COC(=O)c1csc(C(=O)COc2ccc(Oc3ccccc3)cc2)n1 [GK403]	34%	34.3%	33.6%	21.5%	32.3% and 10.6%	11.19% and -0.79% and 22.56% and 22.92%	71.06% and 44.35% and 48.83% and 61.77%	83.19% and 96.79% and 91.92%	57 ± 12%	0.79 µM	0.793 µM	0.793 µM	101%		
CCCCCCCCc1ccc(OC(C)C(=O)c2nc(C(=O)OC)cs2)cc1 (stereo not shown) [GK402]	61%	60.8%	59.9%	79.7%	79.3% and 79.5% and 80.3%	6.56% and 7.69% and 18.19%	17.63% and 31.62%	31.01% and 44.57%	23 ± 8%	6.7 µM	6.7 µM	6.7 µM	36.7%	18.5%	Stability in human plasma 20+ h ([2]; % of the compound remaining after 25 h (¤)): 47.3¤ %; plasma stability 25h (%) [2]: 47% and 46% and 48.8%
CCCCCCCCc1ccc(OCC(=O)c2nc(C(=O)OC)cs2)cc1 [GK470]				60.6%	58.2% and 63% and 60.5%	11.2% and 24.55% and 57.46% and 50.18%	71.51% and 64.93% and 67.46%	105% and 107.21% and 94.17%	67 ± 4%	0.38 µM	0.385 µM	0.385 µM	110%	62.7%	plasma stability 25h (%) [2]: 10.5% and 10.6%
CCCCCCSc1ccc(OC(C)C(=O)c2nc(C(=O)OC)cs2)cc1 (stereo not shown) [GK449]	67%	67.1%	73.4%	63%	58.4% and 67.6%	16.56% and 7.46% and 9.46% and 46.5%	47.16% and 43.5% and 67.91% and 74.94%	92.05% and 77.81% and 56.83% and 101.84%	58 ± 15%	0.78 µM	0.783 µM	0.783 µM			Stability in human plasma 20+ h [2, 16]: 18.35* %; plasma stability 24h39min (%) [2]: 16.1% and 20.6%
CCCCCCSc1ccc(OCC(=O)c2nc(C(=O)OC)cs2)cc1 [GK427]	7.5%	7.5%		61.3%	59% and 63.5%	24.46% and 29.82% and 29.25%	49.86% and 62.69%	90.15% and 92.25% and 90.43%	56 ± 5%	0.67 µM	0.671 µM	0.671 µM	84%	55.8%	Stability in human plasma 20+ h [2, 6]: 8.05%; plasma stability 20h (%) [2]: 0% and 16.1%; inhibition at 0.2 µM (SW982 synoviocytes; Homo sapiens, SW982, 0.2 µM, individual biological replicate): 26.4%
CCCCCCCOc1ccc(OC(C)C(=O)c2nc(C(=O)OC)cs2)cc1 (stereo not shown) [GK439]	67%	66.9%	68.3%	59.9%	55.1% and 64.7%	39.77% and 13.25% and 29.88% and 48.17%	95.13% and 73.24% and 73.33% and 76.5%	98.88% and 99.59% and 96.75%	80 ± 10%	0.32 µM	0.325 µM	0.325 µM	116%		Stability in human plasma 20+ h [2, 16]: 12.8* %; plasma stability 24h39min (%) [2]: 10.7% and 14.8%
